Laboratory results from patent publication US11964971B2, “Methods and compositions for modulating splicing” (Skyhawk Therapeutics, Inc., priority 2019, dated 2024).

Assays:
MDR1 = test: in vitro; conditions: dog; for Papp A→B at 120 min, 5 μM: MDCK-MDR1, pH 7.4, MDCK-MDR1: Papp A-B (10^−6, cm/s); for Papp B→A at 120 min, 5 μM: MDCK-MDR1, pH 7.4, MDCK-MDR1: Papp B-A (10^−6, cm/s)
MDR1 (P-gp) = test: MDCK-MDR1 permeability assay, blood-brain-barrier penetration potential; conditions: dog, MDCK-MDR1, pH 7.4, MDCK-MDR1 Efflux Ratio
SMN protein = SMN protein assay (MSD) in SMA patient fibroblasts (GM03813); format: cell-based, human
Procedure: Compounds are tested on spinal muscular atrophy (SMA) patient fibroblasts (GM03813, Coriell) at doses ranging from 2.5 μM to 0.6 nM. 7000 cells/well are seeded in 96-well plates. Compounds are incubated for 48 hours and the cells were lysed with 100 μL of lysis buffer. 20 μL of lysate is used for SMN protein measurement by Mesoscale Discovery (MSD) assay developed by PharmOptima (Michigan). A standard curve prepared with SMN protein ranging from […] is used in each MSD plate to calculate the absolute SMN protein amount in each sample.

[1] = system: MDR1-MDCK cell monolayers; conditions: dog, MDCK-MDR1, 120 min, 5 μM, pH 7.4

SMILES | Papp A→B at 120 min, 5 μM (MDR1) [×10⁻⁶ cm/s] | Papp B→A at 120 min, 5 μM (MDR1) [×10⁻⁶ cm/s] | efflux ratio at 120 min, 5 μM (MDR1 (P-gp)) | EC50 (SMN protein) [nM] | MDCK-MDR1: % Recov A-B (%) [1] [%] | MDCK-MDR1: % Recov B-A (%) [1] [%]
Oc1cc(-c2cn[nH]c2)ccc1-c1cnc(O[C@H]2CC3CC[C@@H](N3)[C@H]2F)cn1 (single isomer, unassigned) [Compound 1E1] | 8.22 | 33.4 | 4 | 501 to 10000 | 68 | 82
Oc1cc(-c2cn[nH]c2)ccc1-c1cnc(O[C@@H]2C[C@H]3CCC(N3)[C@@H]2F)cn1 (single isomer, unassigned) [Compound 1E2] | 7.49 | 40.1 | 5 | 501 to 10000 | 66 | 79
CN(c1cnc(-c2ccc(-c3cnn(C)c3)cc2O)cn1)[C@@H]1[C@H](F)[C@H]2CCC(N2)[C@@H]1F (single isomer, unassigned) [Compound 4E2] | 4.94 | 27.9 | 6 | 16 to 50 | 44 | 63
CN(c1cnc(-c2ccc(-c3cn[nH]c3)cc2O)cn1)[C@@H]1C[C@H]2CCCC(N2)[C@@H]1F (single isomer, unassigned) [Compound 6E1] | 4.58 | 42.3 | 9 | 501 to 10000 | 76 | 69
CN(c1cnc(-c2ccc(-c3cn[nH]c3)cc2O)cn1)[C@@H]1C[C@H]2CCC(N2)[C@@H]1F (single isomer, unassigned) [Compound 8E1] | 3.58 | 33.3 | 9 | 501 to 10000 | 72 | 71
CN(c1cnc(-c2ccc(-c3cn[nH]c3)cc2O)cn1)[C@H]1CC2N[C@@H](C1)CC2(F)F (single isomer, unassigned) [Compound 9E1] | 17.9 | 51.6 | 3 | 501 to 10000 | 60 | 77
CN(c1cnc(-c2ccc(-c3cn[nH]c3)cc2O)cn1)[C@H]1CC2CC(F)(F)[C@H](C1)N2 (single isomer, unassigned) [Compound 9E2] | 19.9 | 55.4 | 3 | 16 to 50 | 71 | 90
CN(c1cnc(-c2ccc(-c3cnn(C)c3)cc2O)cn1)[C@@H]1CC2CC(F)(F)[C@@H](C1)N2 (single isomer, unassigned) [Compound 10E1] | 22.9 | 26.1 | 1 | 501 to 10000 | 59 | 86
CN(c1cnc(-c2ccc(-c3cnn(C)c3)cc2O)cn1)[C@@H]1CC2N[C@H](C1)CC2(F)F (single isomer, unassigned) [Compound 10E2] | 28.7 | 23.7 | 1 | 101 to 500 | 64 | 67
Oc1cc(-n2ccnn2)c(F)cc1-c1cnc(N(C2CC2)[C@@H]2CC3CC[C@H](N3)[C@@H]2F)cn1 (single isomer, unassigned) [Compound 11E1] | 5.25 | 35.9 | 7 | 501 to 10000 | 74 | 83
Oc1cc(-n2ccnn2)c(F)cc1-c1cnc(N(C2CC2)[C@H]2C[C@@H]3CCC(N3)[C@H]2F)cn1 (single isomer, unassigned) [Compound 11E2] | 6.21 | 41.1 | 7 | 501 to 10000 | 69 | 72
CN(c1cnc(-c2cc(F)c(-c3ccn(C)c(=O)c3)cc2O)cn1)[C@@H]1CC2CCC[C@H](N2)[C@@H]1F (single isomer, unassigned) [Compound 12E1] | 1.99 | 54.9 | 28 | 101 to 500 | 78 | 83
CN(c1cnc(-c2cc(F)c(-c3ccn(C)c(=O)c3)cc2O)cn1)[C@@H]1CC2CC[C@H](N2)[C@@H]1F (single isomer, unassigned) [Compound 13E1] |  | 106 | 49 | 101 to 500 | 454 | 
CN(C)C(=O)c1cc(O)c(-c2cnc(N(C)[C@@H]3CC4CC[C@H](N4)[C@@H]3F)cn2)cc1F (single isomer, unassigned) [Compound 14E1] | 0.75 | 39.1 | 52 | 501 to 10000 | 79 | 84
CN(C)C(=O)c1cc(O)c(-c2cnc(N(C)[C@H]3C[C@@H]4CCC(N4)[C@H]3F)cn2)cc1F (single isomer, unassigned) [Compound 14E2] | 0.91 | 59.1 | 65 | 501 to 10000 | 87 | 88
CNC(=O)c1cc(O)c(-c2cnc(N(C)[C@@H]3CC4CC[C@H](N4)[C@@H]3F)cn2)cc1F (single isomer, unassigned) [Compound 15E1] | 2.74 | 64.4 | 24 | 501 to 10000 | 86 | 97
CNC(=O)c1cc(O)c(-c2cnc(N(C)[C@H]3C[C@@H]4CCC(N4)[C@H]3F)cn2)cc1F (single isomer, unassigned) [Compound 15E2] | 2.66 | 68.8 | 26 | 501 to 10000 | 85 | 86
CN(c1cnc(-c2cc(F)c(-c3cnn(C)c3)cc2O)cn1)[C@H]1C[C@@H]2CCC(N2)[C@H]1F (single isomer, unassigned) [Compound 17E1] | 4.22 | 18.6 | 4 | 0.01 to 15 | 31 | 74
CN(c1cnc(-c2cc3ncn(CC(F)(F)F)c(=O)c3cc2O)cn1)[C@@H]1CC2CCC[C@H](N2)[C@@H]1F (single isomer, unassigned) [Compound 18E1] | 0.92 | 65.1 | 71 | 501 to 10000 | 78 | 86
CN(c1cnc(-c2cc3ccc(OCF)nc3cc2O)cn1)[C@@H]1CC2CC[C@H](N2)[C@@H]1F (single isomer, unassigned) [Compound 19E1] | 2.13 | 18.6 | 9 | 501 to 10000 | 24 | 57
CN(c1cnc(-c2cc3ccc(OCF)nc3cc2O)cn1)[C@H]1C[C@@H]2CCC(N2)[C@H]1F (single isomer, unassigned) [Compound 19E2] | 2.81 | 17.1 | 6 | 501 to 10000 | 28 | 62
CN(c1cnc(-c2cc3oc(C(=O)N4CCC4)cc3cc2O)cn1)[C@@H]1CC2CC[C@H](N2)[C@@H]1F (single isomer, unassigned) [Compound 20E1] | 2.71 | 56.4 | 21 | 501 to 10000 | 83 | 101
CN(c1cnc(-c2cc3oc(C(=O)N4CCC4)cc3cc2O)cn1)[C@H]1C[C@@H]2CCC(N2)[C@H]1F (single isomer, unassigned) [Compound 20E2] | 0.94 | 41.9 | 45 | 501 to 10000 | 75 | 79
CN(c1cnc(-c2cc(F)c(C3=CC(F)NC(F)=C3)cc2O)cn1)[C@H]1C[C@]2(C)CC[C@@](C)(N2)[C@H]1F (single isomer, unassigned) [Compound 63E2] | 0.58 | 0.22 |  | 501 to 10000 | 19 | 24
Cc1noc(-c2ccc(-c3cnc(N(C)[C@@H]4CC5CC[C@H](N5)[C@@H]4F)cn3)c(O)c2)n1 (single isomer, unassigned) [Compound 70E1] |  |  |  | 501 to 10000 |  | 
Cc1noc(-c2ccc(-c3cnc(N(C)[C@H]4C[C@@H]5CCC(N5)[C@H]4F)cn3)c(O)c2)n1 (single isomer, unassigned) [Compound 70E2] |  |  |  | 101 to 500 |  | 
CN(c1cnc(-c2ccc3ccncc3c2O)cn1)[C@H]1C[C@@H]2CCC(N2)[C@H]1F (single isomer, unassigned) [Compound 71E2] |  |  |  | 16 to 50 |  | 
